Measurements as given in US20240025966A1, “CD47 BLOCKADE AND COMBINATION THERAPIES THEREOF FOR REDUCTION OF VASCULAR INFLAMMATION” (The Board of Trustees of the Leland Stanford Junior …, priority 2020, published 2024).

Key:
[1] = tested on: NFκB1 p50; experiment: NFκB1 p50 nuclear translocation by immunofluorescence and Western blot; assay type: cell-based, mouse; conditions: smooth muscle cells, 10 μM atorvastatin + 100 μM mevalonate
Procedure: Mouse smooth muscle cells were seeded in Millicell EZ Slides 1 (Sigma-Aldrich, Catalogue #PEZGS0416 or Catalogue #PEZGS0816). […] Following stimulation/treatment, cells were rinsed with PBS and fixed with 4% phosphate-buffered paraformaldehyde. For CD47 staining (BioXCell, MIAP410, 25 μg/ml), vector mouse-on-mouse fluorescein Immunodetection Kit (Thermo Scientific, Catalogue #NC9801950) was used according to the manufacturer's instructions. For NFκB1 p105/p50 staining, cells were blocked with 5% goat serum (Sigma-Aldrich, Catalogue #G9023) for 30 minutes, then incubated with NFκB1 p105/p50 (Cell Signaling Technology, Catalogue #13586S, D4P4D, 1:200) overnight at 4° C. […] Images were captured using a Leica DMi8 microscope (equipped with a Leica DMC4500 colour camera and a Leica K5 camera for fluorescence imaging).
Total protein was isolated from mouse smooth muscle cells using a subcellular protein fractionation kit (Thermo Scientific, Catalogue #78840) supplemented with Halt Protease and Phosphatase Inhibitor Cocktail (Thermo Scientific, Catalogue #78442). The protein concentration in each sample was measured using Pierce BCA Protein Assay Kit (Thermo Scientific, Catalogue #23225). […] Membranes were then scanned with an iBright 1500 Imaging System (Thermo Scientific) for quantitative analysis using Image J/FIJI software (Version: 2.0.0/1.52p, NIH).

[2] = tested on: RAW 264.7 macrophages; experiment: Apoptosis assay (Caspase-Glo 3/7); assay type: cell-based, mouse; conditions: with or without 1 μM staurosporine, 4 hours
Procedure: The apoptosis assay was performed as previously described (Kojima et al., Nature 536, 86-90, 2016). To evaluate apoptosis, the luminometric Caspase-Glo 3/7 Assay System (Promega, Catalogue #G8091) was performed on cultured murine RAW 264.7 macrophages, according to the manufacturer's protocol. Cells were seeded in 96-well plates at the density of 10,000 cells per well, grown at 37° C. and serum-starved for 24 hours. […] For quantification, an iD3 luminometer (Molecular Devices) was used.

[3] = tested on: CD47; experiment: Cd47 expression by quantitative PCR, flow cytometry and immunofluorescence; assay type: cell-based, mouse; conditions: smooth muscle cells, 50 ng/ml TNF-α + 10 μM atorvastatin, 48 hours; compared to macrophages
Procedure: RNA was extracted from cell lysates using the miRNeasy Mini Kit (Qiagen, Catalogue #217004) according to the manufacturer's protocol or the TRIzol method (Invitrogen, Catalogue #15596026). Then, RNA was quantified with a NanoDrop One (Thermo Scientific). RNA was reverse transcribed using the High-Capacity RNA-to-cDNA Synthesis Kit (Applied 1 Biosystems, Catalogue #4387406). Quantitative PCR of the cDNA samples was performed on a ViiA7 Real-Time PCR system or a QuantStudio 5 (both Applied Biosystems). Gene expression levels were measured using TaqMan Universal Master Mix II (Applied Biosystems, Catalogue #4440047, Lot #00762728) and commercially available TaqMan primers (Applied Biosystems). Data were quantified with the 2^−ΔΔCt method and normalized to Gapdh as an internal control. […]
Cells were washed, harvested, and stained with an anti-CD47 antibody (BD Life Sciences, Catalogue #561890, FITC, MIAP301, 0.5 mg/ml) or an isotype control antibody (BD Life Sciences, Catalogue #553929, FITC, R35-95, 0.5 mg/ml) after Fc receptor blockade (BD Biosciences, Catalogue #553142, anti-mouse CD16/CD32). Expression was quantified using the LSRII (BD Life Sciences, Stanford Shared FACS Facility) and analysed by FlowJo10.7.1 (BD Life Sciences). […]

[4] = tested on: CD47 promoter; experiment: CD47 promoter luciferase reporter assay; assay type: cell-based, mouse; conditions: smooth muscle cells, 50 ng/ml TNF-α + 10 μM atorvastatin, 24 hours
Procedure: The luciferase reporter assay was performed as previously described (Kojima et al., Nature 536, 86-90, 2016). CD47 LightSwitch Promoter Reporter GoClones (RenSP, S710450) and Cypridina TK Control constructs (pTK-Cluc, SN0322S) were obtained from SwitchGear Genomics. 45 ng of the RenSP reporter and 5 ng of the pTK-Cluc reporter construct were transfected into mouse smooth muscle cells using Lipofectamine 3000 Transfection 1 Reagent (Thermo Scientific, Catalogue #L3000-008) and Opti-MEM I Reduced Serum Medium (Thermo Scientific, Catalogue #31985062). […] The cell lysate and supernatant were harvested 24 hours after stimulation/treatment und dual luciferase activity was measured with the LightSwitch Luciferase Assay Kit (Active Motif, Catalogue #32031, NC0999256) and Pierce Cypridina Luciferase Glow Assay Kit (Thermo Scientific, P116170) using an iD3 luminometer (Molecular Devices). Relative luciferase activity (RenSP/Cypridina ratio) was quantified as the percentage change relative to the basal value obtained from control-transfected cells.

[5] = tested on: humans; experiment: Retrospective analysis of 18F-FDG-PET/CT scans of patients treated with magrolimab; assay type: in vivo, human; conditions: mean±SD, n=9
Procedure: Study population and design. The 13 participants enrolled in the first-in-human clinical trials of magrolimab at Stanford University were identified for inclusion in this retrospective analysis. These patients had refractory or relapsed B-cell lymphoma and had become refractory to rituximab alone or in combination with chemotherapy prior to enrollment. The protocol was reviewed and approved by the institutional review board at Stanford University (IRB #55497). Participants were treated with magrolimab in combination with background rituximab therapy. […]
^18F-FDG-PET/CT scans and analysis. […] Images were anonymized and analyzed using MIM Vista version 6.9.2 (MIM Software Inc., Cleveland, OH). The analyses were performed as previously described, and vascular uptake was quantified in the carotid arteries to avoid confounding by signal present in the mediastinal lymph nodes. Briefly, the carotid artery bifurcations on both sides were identified and arterial FDG uptake was measured starting 2 cm below the carotid artery bifurcation and continuing superiorly to 2 cm into the internal carotid artery. […] The maximum target-to-background ratio (TBR) was calculated (ratio of the maximum SUV of the artery compared to background activity in the ipsilateral internal jugular vein). […] This was calculated as an average maximum TBR derived from four contiguous axial segments. […]

## CC(O)(CCOP(=O)(O)O)CC(=O)O (racemic) [DL-mevalonic acid 5-phosphate]
[1]
  effect of atorvastatin on NFκB1 p50 nuclear translocation with the addition of mevalonate: eliminated

## CC(C)c1c(C(=O)Nc2ccccc2)c(-c2ccccc2)c(-c2ccc(F)cc2)n1CC[C@@H](O)C[C@@H](O)CC(=O)O [atorvastatin]
[2]
  rate of programmed cell death (apoptosis): not found
[3]
  CD47 RNA level: larger reduction
  CD47 protein level: larger reduction
[4]
  tumor necrosis factor-α induced CD47 promoter activity: inhibit

## magrolimab: humanized anti-CD47 antibody, the first macrophage checkpoint inhibitor
[5]; most diseased segment of the index vessel (carotid) after magrolimab 20 to 45 mg/kg weekly with background rituximab, baseline 2.75±0.58, p=0.01
  18F-FDG uptake measured by maximum SUV: 2.09±0.53
[5]; most diseased segment of the index vessel (carotid) after magrolimab with background rituximab, baseline 1.56±0.22, p=0.006
  18F-FDG uptake measured by maximum TBR: 1.28±0.11
